In publication PMC7026418, “The kinase polypharmacology landscape of clinical PARP inhibitors” (Scientific Reports, 2020):
Read-outs that look alike come from different tables or passages of the source. Values belong to the compound of their own block, whether it stands above or below them.

How the values were obtained:
Assay in all cases: biochemical
Set-up in all cases: DiscoveRx KINOMEscan active site-directed competition binding; percent of control kinase bound to immobilised ligand
PRP4 = biological target: T1, PRP4 (Homo sapiens, UniProt Q13523)
T1 construct: gene PRPF4B

[1] = biological target: T2, TYK2(JH2domain-pseudokinase) (Homo sapiens, UniProt P29597)
T2 construct: JH2domain-pseudokinase
T2 sequence (P29597 whole entry): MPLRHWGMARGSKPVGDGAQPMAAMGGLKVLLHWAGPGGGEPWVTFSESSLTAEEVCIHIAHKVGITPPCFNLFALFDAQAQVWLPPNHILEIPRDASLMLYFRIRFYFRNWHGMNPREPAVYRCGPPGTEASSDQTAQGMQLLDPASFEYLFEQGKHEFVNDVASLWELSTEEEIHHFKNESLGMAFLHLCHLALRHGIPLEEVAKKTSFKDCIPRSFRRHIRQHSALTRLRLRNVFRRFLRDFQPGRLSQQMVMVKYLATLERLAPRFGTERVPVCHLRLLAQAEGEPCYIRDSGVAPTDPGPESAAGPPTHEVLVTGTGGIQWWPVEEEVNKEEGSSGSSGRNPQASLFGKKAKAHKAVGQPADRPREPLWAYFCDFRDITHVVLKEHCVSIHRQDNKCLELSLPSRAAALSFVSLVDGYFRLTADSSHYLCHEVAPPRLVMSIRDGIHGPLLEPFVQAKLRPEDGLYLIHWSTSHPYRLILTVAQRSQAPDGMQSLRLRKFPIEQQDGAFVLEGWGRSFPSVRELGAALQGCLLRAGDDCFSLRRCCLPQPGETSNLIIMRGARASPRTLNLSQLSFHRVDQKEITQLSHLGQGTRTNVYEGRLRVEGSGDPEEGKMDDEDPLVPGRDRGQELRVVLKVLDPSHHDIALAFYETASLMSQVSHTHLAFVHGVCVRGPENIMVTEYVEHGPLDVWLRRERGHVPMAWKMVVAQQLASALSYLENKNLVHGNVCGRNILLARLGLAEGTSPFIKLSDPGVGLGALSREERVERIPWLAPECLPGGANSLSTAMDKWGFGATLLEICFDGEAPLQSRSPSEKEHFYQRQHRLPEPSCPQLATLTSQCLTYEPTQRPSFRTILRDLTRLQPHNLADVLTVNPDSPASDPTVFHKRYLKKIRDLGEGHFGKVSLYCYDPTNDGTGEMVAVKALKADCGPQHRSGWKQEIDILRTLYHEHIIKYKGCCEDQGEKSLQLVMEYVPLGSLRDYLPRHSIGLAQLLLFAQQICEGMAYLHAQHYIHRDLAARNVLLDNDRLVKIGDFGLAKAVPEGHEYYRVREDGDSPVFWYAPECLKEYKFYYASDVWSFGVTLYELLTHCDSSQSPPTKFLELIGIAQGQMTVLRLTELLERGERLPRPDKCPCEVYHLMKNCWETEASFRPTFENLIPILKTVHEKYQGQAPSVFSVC

RIOK3 = biological target: T3, RIOK3 (Homo sapiens, UniProt O14730)
T3 sequence (O14730 1-519): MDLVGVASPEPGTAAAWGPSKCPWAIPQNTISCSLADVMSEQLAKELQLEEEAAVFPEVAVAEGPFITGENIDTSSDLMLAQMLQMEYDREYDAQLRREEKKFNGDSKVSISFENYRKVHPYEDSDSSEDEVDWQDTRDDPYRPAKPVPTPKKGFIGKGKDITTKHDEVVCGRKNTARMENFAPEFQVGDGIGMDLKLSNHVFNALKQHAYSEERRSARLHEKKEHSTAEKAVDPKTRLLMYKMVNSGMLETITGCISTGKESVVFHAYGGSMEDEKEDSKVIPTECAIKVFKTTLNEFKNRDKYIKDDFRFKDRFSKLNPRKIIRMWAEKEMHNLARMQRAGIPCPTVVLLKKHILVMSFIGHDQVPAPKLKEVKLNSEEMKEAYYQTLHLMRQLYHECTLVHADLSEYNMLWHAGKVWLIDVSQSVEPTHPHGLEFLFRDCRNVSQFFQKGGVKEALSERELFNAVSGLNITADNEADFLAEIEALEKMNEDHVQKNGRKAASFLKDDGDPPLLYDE

KIT(V559D,T670I) = KIT(V559D,T670I) (Homo sapiens, UniProt P10721, T670I/V559D)
KIT(V559D,T670I), sequence (P10721 whole entry V559D/T670I): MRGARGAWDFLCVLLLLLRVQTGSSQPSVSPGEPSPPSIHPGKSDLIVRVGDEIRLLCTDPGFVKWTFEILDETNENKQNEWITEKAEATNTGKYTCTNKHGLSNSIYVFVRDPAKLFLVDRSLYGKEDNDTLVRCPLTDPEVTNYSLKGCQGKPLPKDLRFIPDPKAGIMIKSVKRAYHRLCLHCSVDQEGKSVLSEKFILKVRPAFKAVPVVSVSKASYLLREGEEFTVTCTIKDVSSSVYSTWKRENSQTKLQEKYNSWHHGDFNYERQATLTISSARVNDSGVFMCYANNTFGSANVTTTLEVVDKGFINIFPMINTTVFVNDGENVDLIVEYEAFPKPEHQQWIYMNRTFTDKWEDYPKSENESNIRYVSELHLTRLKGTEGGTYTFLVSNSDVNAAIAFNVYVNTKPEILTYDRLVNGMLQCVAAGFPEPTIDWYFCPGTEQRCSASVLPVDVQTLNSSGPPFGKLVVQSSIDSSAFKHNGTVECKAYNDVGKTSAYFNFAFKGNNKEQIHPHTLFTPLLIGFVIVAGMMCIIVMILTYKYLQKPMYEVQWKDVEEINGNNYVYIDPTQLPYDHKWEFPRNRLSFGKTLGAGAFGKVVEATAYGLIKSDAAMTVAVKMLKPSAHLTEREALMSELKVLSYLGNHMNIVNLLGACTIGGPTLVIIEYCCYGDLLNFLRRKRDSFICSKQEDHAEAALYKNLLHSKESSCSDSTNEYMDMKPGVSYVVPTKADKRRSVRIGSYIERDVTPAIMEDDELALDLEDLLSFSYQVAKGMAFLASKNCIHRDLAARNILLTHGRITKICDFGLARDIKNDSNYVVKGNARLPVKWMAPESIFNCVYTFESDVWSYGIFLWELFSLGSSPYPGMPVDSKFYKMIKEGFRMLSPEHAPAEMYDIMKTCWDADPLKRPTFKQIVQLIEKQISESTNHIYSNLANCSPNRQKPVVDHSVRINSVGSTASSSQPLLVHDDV

CAMK2D = CAMK2D (Homo sapiens, UniProt Q13557)
CAMK2D, sequence (Q13557 whole entry): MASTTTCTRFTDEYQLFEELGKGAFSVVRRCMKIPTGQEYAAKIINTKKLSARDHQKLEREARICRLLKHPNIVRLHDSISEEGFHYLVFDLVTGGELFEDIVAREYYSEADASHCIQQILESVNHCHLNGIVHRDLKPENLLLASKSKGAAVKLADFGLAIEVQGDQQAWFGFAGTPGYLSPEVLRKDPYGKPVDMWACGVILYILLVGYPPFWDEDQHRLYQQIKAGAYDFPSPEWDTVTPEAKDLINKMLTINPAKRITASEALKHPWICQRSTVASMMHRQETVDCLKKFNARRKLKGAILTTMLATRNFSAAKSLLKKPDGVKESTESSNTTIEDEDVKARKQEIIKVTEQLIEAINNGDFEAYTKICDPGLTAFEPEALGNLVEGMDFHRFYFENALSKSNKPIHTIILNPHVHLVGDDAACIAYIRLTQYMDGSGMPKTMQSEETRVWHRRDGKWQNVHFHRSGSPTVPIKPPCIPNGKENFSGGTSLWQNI

[2] = biological target: T4, ABL1(F317I)-phosphorylated (Homo sapiens, UniProt P00519, F317I)
T4 construct: phosphorylated
T4 sequence (P00519 whole entry F317I): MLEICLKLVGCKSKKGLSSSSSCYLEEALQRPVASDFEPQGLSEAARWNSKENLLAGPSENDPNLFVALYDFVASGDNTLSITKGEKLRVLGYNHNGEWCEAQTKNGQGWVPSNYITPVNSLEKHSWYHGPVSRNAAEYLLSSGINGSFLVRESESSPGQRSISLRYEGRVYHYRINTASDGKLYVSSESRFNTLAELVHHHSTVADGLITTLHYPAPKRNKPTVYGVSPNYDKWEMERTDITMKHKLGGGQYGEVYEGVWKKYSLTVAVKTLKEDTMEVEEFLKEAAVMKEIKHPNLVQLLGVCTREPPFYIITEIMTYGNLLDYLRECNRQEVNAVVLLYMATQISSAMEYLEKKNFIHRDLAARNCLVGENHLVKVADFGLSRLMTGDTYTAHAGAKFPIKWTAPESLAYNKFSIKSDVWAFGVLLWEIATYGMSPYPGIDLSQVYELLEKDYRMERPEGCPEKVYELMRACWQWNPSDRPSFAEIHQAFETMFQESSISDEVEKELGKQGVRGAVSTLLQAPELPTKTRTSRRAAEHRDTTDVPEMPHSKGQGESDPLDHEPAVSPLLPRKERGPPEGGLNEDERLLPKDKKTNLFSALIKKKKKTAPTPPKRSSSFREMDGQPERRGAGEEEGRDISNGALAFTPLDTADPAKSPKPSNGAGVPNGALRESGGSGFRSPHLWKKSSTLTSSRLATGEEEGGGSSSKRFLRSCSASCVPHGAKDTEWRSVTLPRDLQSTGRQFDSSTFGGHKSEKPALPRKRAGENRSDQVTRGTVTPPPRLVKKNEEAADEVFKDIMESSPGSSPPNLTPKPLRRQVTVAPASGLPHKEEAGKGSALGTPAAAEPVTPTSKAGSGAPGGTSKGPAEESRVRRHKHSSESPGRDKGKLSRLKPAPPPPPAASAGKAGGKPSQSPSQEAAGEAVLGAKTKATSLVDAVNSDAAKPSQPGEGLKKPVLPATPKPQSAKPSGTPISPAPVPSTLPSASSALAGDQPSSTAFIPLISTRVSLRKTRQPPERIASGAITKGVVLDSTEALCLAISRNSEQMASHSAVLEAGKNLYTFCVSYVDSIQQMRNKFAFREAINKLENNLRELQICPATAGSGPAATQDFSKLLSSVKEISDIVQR

ABL1-nonphosphorylated = biological target: T5, ABL1-nonphosphorylated (Homo sapiens, UniProt P00519)
T5 construct: nonphosphorylated
T5 sequence (P00519 whole entry): as the sequence (P00519 whole entry F317I) above, with I317F counted along it

ACVR1 = biological target: T6, ACVR1 (Homo sapiens, UniProt Q04771)
T6 sequence (Q04771 1-509): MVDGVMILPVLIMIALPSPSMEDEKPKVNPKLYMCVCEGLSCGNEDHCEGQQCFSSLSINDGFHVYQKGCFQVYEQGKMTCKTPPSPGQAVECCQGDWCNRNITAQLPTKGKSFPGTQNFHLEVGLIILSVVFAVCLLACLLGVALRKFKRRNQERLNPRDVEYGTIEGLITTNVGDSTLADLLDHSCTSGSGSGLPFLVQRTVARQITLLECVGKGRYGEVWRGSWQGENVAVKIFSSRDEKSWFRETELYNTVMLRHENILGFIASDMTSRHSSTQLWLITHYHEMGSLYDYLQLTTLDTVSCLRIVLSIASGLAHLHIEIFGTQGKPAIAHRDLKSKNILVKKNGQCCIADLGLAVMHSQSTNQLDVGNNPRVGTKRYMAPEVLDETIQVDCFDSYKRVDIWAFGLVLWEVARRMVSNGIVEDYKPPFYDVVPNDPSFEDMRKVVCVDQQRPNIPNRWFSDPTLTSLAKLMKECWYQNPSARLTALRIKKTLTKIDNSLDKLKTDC

CLK3 = CLK3 (Homo sapiens, UniProt P49761)
CLK3, sequence (P49761 whole entry): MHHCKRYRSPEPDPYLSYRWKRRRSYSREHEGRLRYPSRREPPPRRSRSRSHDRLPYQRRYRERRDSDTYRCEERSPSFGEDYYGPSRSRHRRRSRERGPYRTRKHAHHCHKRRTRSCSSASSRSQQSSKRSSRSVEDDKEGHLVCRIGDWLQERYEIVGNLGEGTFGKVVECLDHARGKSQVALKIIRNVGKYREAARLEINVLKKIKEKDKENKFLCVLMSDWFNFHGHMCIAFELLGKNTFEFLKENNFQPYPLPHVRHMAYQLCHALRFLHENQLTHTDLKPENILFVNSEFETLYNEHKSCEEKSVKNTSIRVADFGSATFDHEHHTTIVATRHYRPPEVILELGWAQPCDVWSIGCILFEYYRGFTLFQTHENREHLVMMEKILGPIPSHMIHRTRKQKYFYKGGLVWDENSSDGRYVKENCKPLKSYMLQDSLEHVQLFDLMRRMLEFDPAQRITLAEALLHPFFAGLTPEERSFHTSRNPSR

ERK8 = biological target: T7, ERK8 (Homo sapiens, UniProt Q8TD08)
T7 construct: gene MAPK15
T7 sequence (Q8TD08 1-544): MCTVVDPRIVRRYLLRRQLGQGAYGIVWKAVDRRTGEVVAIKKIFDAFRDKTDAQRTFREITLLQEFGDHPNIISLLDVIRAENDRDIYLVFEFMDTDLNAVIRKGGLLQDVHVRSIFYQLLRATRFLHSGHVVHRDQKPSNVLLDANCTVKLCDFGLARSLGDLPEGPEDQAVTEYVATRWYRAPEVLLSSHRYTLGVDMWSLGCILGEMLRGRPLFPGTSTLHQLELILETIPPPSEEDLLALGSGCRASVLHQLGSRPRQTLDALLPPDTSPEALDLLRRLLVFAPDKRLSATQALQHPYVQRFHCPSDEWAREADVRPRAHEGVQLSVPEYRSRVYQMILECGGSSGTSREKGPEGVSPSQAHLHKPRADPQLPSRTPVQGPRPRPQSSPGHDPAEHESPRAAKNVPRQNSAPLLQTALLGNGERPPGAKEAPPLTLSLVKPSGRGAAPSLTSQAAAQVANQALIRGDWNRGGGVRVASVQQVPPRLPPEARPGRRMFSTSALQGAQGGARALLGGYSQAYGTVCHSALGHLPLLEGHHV

CDK8 = CDK8 (Homo sapiens, UniProt P49336)
CDK8, sequence (P49336 whole entry): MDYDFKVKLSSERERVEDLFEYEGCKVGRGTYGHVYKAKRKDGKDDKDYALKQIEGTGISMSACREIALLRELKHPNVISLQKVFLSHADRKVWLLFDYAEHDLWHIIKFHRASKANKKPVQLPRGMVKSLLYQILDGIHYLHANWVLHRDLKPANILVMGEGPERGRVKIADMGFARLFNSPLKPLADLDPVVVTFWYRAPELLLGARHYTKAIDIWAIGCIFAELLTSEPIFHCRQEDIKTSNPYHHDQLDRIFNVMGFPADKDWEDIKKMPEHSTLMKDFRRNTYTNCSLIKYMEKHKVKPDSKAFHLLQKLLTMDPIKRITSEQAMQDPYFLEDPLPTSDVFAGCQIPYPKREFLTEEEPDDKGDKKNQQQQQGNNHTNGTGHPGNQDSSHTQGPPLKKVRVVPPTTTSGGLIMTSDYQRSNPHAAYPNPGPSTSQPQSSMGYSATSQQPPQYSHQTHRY

FGFR3(G697C) = FGFR3(G697C) (Homo sapiens, UniProt P22607, G697C)
[3] = read-out: Niraparib (MK-4827) / %Ctrl @ 10000nM
[4] = read-out: Olaparib / %Ctrl @ 10000nM
[5] = read-out: Rucaparib / %Ctrl @ 10000nM, binding competition, % of control
[6] = read-out: Talazoparib (BMN 673) / %Ctrl @ 10000nM

SMILES: NC(=O)c1cccc2cn(-c3ccc([C@@H]4CCCNC4)cc3)nc12 [Niraparib]
percent of control binding at 10 µM (PRP4; [3]): 97%
percent of control binding at 10 µM [1, 3]: 37%
percent of control binding at 10 µM (RIOK3; [3]): 95%
percent of control binding at 10 µM (KIT(V559D,T670I); [3]): 97%
percent of control binding at 10 µM (CAMK2D; [3]): 99%
percent of control binding at 10 µM [2, 3]: 89%
percent of control binding at 10 µM (ABL1-nonphosphorylated; [3]): 94%
percent of control binding at 10 µM (ACVR1; [3]): 83%
percent of control binding at 10 µM (CLK3; [3]): 100%
percent of control binding at 10 µM (ERK8; [3]): 61%
percent of control binding at 10 µM (CDK8; [3]): 68%
percent of control binding at 10 µM (FGFR3(G697C); [3]): 90%

percent of control binding at 10 µM (PRP4; [4]): 82%
percent of control binding at 10 µM [1, 4]: 79%
percent of control binding at 10 µM (RIOK3; [4]): 100%
percent of control binding at 10 µM (KIT(V559D,T670I); [4]): 92%
percent of control binding at 10 µM (CAMK2D; [4]): 99%
percent of control binding at 10 µM [2, 4]: 86%
percent of control binding at 10 µM (ABL1-nonphosphorylated; [4]): 87%
percent of control binding at 10 µM (ACVR1; [4]): 96%
percent of control binding at 10 µM (CLK3; [4]): 89%
percent of control binding at 10 µM (CDK8; [4]): 100%
percent of control binding at 10 µM (FGFR3(G697C); [4]): 98%
SMILES: O=C(c1cc(Cc2n[nH]c(=O)c3ccccc23)ccc1F)N1CCN(C(=O)C2CC2)CC1 [Olaparib]
percent of control binding at 10 µM (ERK8; [4]): 97%

percent of control binding at 10 µM (PRP4; [5]): 85%
percent of control binding at 10 µM [1, 5]: 7.6%
percent of control binding at 10 µM (RIOK3; [5]): 85%
percent of control binding at 10 µM (KIT(V559D,T670I); [5]): 91%
percent of control binding at 10 µM (CAMK2D; [5]): 89%
percent of control binding at 10 µM [2, 5]: 92%
percent of control binding at 10 µM (ABL1-nonphosphorylated; [5]): 82%
percent of control binding at 10 µM (ACVR1; [5]): 92%
percent of control binding at 10 µM (CLK3; [5]): 75%
percent of control binding at 10 µM (CDK8; [5]): 86%
percent of control binding at 10 µM (FGFR3(G697C); [5]): 100%
SMILES: CNCc1ccc(-c2[nH]c3cc(F)cc4c3c2CCNC4=O)cc1 [Rucaparib]
percent of control binding at 10 µM (ERK8; [5]): 86%

percent of control binding at 10 µM (PRP4; [6]): 100%
percent of control binding at 10 µM [1, 6]: 84%
percent of control binding at 10 µM (RIOK3; [6]): 100%
percent of control binding at 10 µM (KIT(V559D,T670I); [6]): 100%
percent of control binding at 10 µM (CAMK2D; [6]): 99%
percent of control binding at 10 µM [2, 6]: 99%
percent of control binding at 10 µM (ABL1-nonphosphorylated; [6]): 100%
percent of control binding at 10 µM (ACVR1; [6]): 95%
percent of control binding at 10 µM (CLK3; [6]): 17%
percent of control binding at 10 µM (CDK8; [6]): 99%
percent of control binding at 10 µM (FGFR3(G697C); [6]): 92%
SMILES: Cn1ncnc1[C@H]1c2n[nH]c(=O)c3cc(F)cc(c23)N[C@@H]1c1ccc(F)cc1 [Talazoparib]
percent of control binding at 10 µM (ERK8; [6]): 88%
